Test results from article PMC9925730, “Controlled sequential in situ self-assembly and disassembly of a fluorogenic cisplatin prodrug for cancer theranostics” (Nature Communications, 2023).
Values joined by “and” are separate entries in the source; they are usually repeats but may differ in a detail not shown here. Equal values may be shown once. Read-outs that look alike come from different tables or passages of the source.

Assays:
HeLa cells = assay: Depletion of intracellular GSH; format: cell-based, human; parameters: key to Intracellular GSH level after treatment (Supplementary Table S2): GSH content in fmol/cell; settings: for [GSH] after treatment / [GSH] depletion: HeLa cells, Pt drug 2 h, then fresh medium 24 h; for Intracellular GSH level after treatment (Supplementary Table S2): blank (before treatment) mean 12.88; for GSH-depletion: relative to blank (before treatment)
Method: Supplementary Tables 1-13 Supplementary Table 1. ICP-OES analysis of Pt in HeLa cells. a Pt drugs Pt element per cell Percentage of Pt element (fmol/cell) b taken up by cells (%) c P-CyPt 24.60 ± 3.5 36.9 ± 5.3 […] 1.73 ± 0.2 2.6 ± 0.3 CDDP 0.73 ± 0.09 1.1 ± 0.1 P-CyPt + Na3VO4 0.07 ± 0.01 0.1 ± 0.01 a HeLa cells were untreated or pre-treated with Na3VO4 (10 mM) for 20 min and then incubated with indicated Pt drug (10 μM) for 1 h. Then, the cells were trypsinized, collected, and the cell numbers were counted and digested with trace metal concentrated HNO3 (65~70%) and HCl (36~38%). The amount of Pt element was determined by ICP-OES. b Pt per cell represents the average amount of Pt element in one HeLa cell, which was calculated by dividing the total amount of Pt element in cells by the cell number. c Percentage of Pt taken up by cells was calculated by dividing the total amount of Pt elements in cells by the amount of Pt drugs added. Values denote mean ± s.d. (n = 3 independent experiments). Supplementary Table 2. Comparison of the intracellular GSH in HeLa cells before and after incubation with different Pt drugs. a Pt [GSH] before treatment [GSH] drugs (fmol/cell) [GSH] after treatment (fmol/cell) depletion b CDDP 11.81 ± 1.7 8.3% […] 11.71 ± 1.6 9.1% 12.88 ± 1.5 P-CyPt 8.07 ± 0.8 37.3% a HeLA cells were untreated or treated with different Pt drugs for 2 h. The cells were washed with PBS for three times, and replaced with fresh medium and incubated for another 24 h. After that, the cells were trypsinized, centrifuged and counted. The cell pellets were dispersed, lysed via sonication, and ultracentrifuged to obtain supernatant. The GSH content (nPt) in the supernatant was measured by a reported detection method. The content of GSH per cell ([GSH]) before and after treatment (nB and nA) was calculated according to the formula: […] GSH depletion: The GSH depletion (Δ) was calculated according to the formula: %Δ = (nB - nA)/ nB. Values denote mean ± s.d. (n = 3 independent experiments). 27 page 45: DNA […]-stained with 5x loading buffer in the TAE buffer and the resultant gel visualized by Gel DocTM XR+ (Bio-Rad) system. Depletion of intracellular GSH. HeLa cells (2×10^5 cells/well) in 2 mL DMEM medium were seeded onto 6-well plates and allowed to grow overnight. Then cells were then treated with […], or CDDP (10 μM), respectively. After that, cells were digested with trypsin and washed with PBS for 3 times. Then, cell pellets were dispersed in pre-chilled extraction solution (1 mL, 0.1 M potassium phosphate buffer containing 0.1% Triton, 0.6% sulfosalicylic acid, and 5 mM EDTA, pH 7.4) and sonicated with an US probe on ice for 2 min. To ensure that cells were lysed completely, the solution was further frozen and thawed twice. Finally, the solution was centrifuged at 3000 g at 4 °C for 4 min. The supernatant was taken to measure the GSH content using commercial GSH detection kit, according to a reported procedure (Nat. Protoc. 2006, 1, 3159). MCTS imaging and cytotoxicity. The three-dimensional multicellular spheroids (MCTS) of HeLa were cultured according to the method previously described (Nat. Protoc. 2009, 4, 309) with minor modifications. Briefly, a well of 96-well plates was covered by 50 μL of hot agarose solution (1.5 w/v %) and then cooled to form a layer of agaropectin. HeLa cells were seeded to the agaropectin-coated well at a density of 2×10^3 cells/well, and incubated to grow into spheroids. DMEM medium was replaced with fresh medium every 2 days until the diameter of tumor spheroids grows near 400 μm. Then, the MCSs were incubated with 10 μM P-CyPt or […] for 1 h, washed with PBS for 3 times. Blank DMEM medium was added, and incubated for another 24 h. After that, PI (4 μM) was added and incubated for 1 h. The medium was removed, and the spheroids were gently washed with PBS (×1), which was then carefully transferred to a glass bottom dish. […]

HEK-293T cells = assay: Cytotoxicity, MTT assay; format: cell-based, human; parameters: key to cell viability, mean: % viability = OD / OD of untreated control
Method: HeLa cells were seeded on flat-bottomed 96-well plates (5000 cells per well) and incubated at 37 °C overnight. Varying concentrations of P-CyPt, Pt^IVNPs or CDDP (0, 1, 2, 5, 10, 20, 30, 50, 100, and 200 μM) in DMEM medium (100 μL) were added. Cells were either incubated for 48 h, or firstly incubated with these three compounds for 2 h, washed with PBS and then incubated with refreshed blank DMEM medium for another 48 h. Then, 3-(4,5)-dimethylthiahiazo (-z-y1)−3,5-di-phenytetrazoliumromide (MTT, 50 μL, 1 mg /mL in PBS) was added into each well. The cells were kept at 37 °C for 4 h, and the solution in each well was carefully removed, followed by addition of dimethyl sulfoxide (DMSO, 150 μL). The absorbance (OD) at 490 nm in each well was acquired on the microplate reader (Tcan). The absorbance of non-treated blank cells (OD control) was used as the control. The percentage of cell viability was calculated by dividing OD to the OD control. […]
Supplementary Table 4. The IC50 (μM) value of different Pt drugs toward HeLa, HepG2 and HEK-293T cells.a
Compounds Condition IC50 (μM) HeLa HepG2 HEK-293T […]
a The IC50 values were measured by the MTT assay. Values denote mean ± s.d. (n = 3 independent experiments). b Cells were incubated with varying concentrations of CDDP, P-CyPt or PtIVNPs for […]
c Cells were incubated with varying concentrations of CDDP, P-CyPt or PtIVNPs for 2 h, and the mediums were removed, washed with PBS. Blank culture mediums were added, and the cells were kept incubation for another 48 h.

[1] = HEK-293T, 2+48 h, individual samples, read-out: IC50-2+48h
[2] = HEK-293T, 2+48 h, mean of 3 samples, read-out: IC50-2+48h
[3] = Supplementary Fig. 23 (c), concentration 1 μM
[4] = Supplementary Fig. 23 (c), concentration 2 μM
[5] = Supplementary Fig. 23 (c), concentration 5 μM
[6] = Supplementary Fig. 23 (c), concentration 10 μM
[7] = Supplementary Fig. 23 (c), concentration 20 μM
[8] = Supplementary Fig. 23 (c), concentration 30 μM
[9] = Supplementary Fig. 23 (c), concentration 50 μM
[10] = Supplementary Fig. 23 (c), concentration 100 μM
[11] = Supplementary Fig. 23 (c), concentration 200 μM
[12] = Supplementary Fig. 24 (c), concentration 1 μM
[13] = Supplementary Fig. 24 (c), concentration 2 μM
[14] = Supplementary Fig. 24 (c), concentration 5 μM
[15] = Supplementary Fig. 24 (c), concentration 10 μM
[16] = Supplementary Fig. 24 (c), concentration 20 μM
[17] = Supplementary Fig. 24 (c), concentration 30 μM
[18] = Supplementary Fig. 24 (c), concentration 50 μM
[19] = Supplementary Fig. 24 (c), concentration 100 μM
[20] = Supplementary Fig. 24 (c), concentration 200 μM
[21] = Supplementary Fig. 24 (c), read-out: IC50
[22] = incubated 2 h, then blank medium 48 h, MTT, read-out: IC50 HEK-293T
[23] = incubated 48 h, MTT, read-out: IC50 HEK-293T

| SMILES | [GSH] after treatment (HeLa cells) | [GSH] depletion (HeLa cells) | Intracellular GSH level after treatment (Supplementary Table S2) (HeLa cells; individual samples) | Intracellular GSH level after treatment (Supplementary Table S2) (HeLa cells; mean of 3 samples) | GSH-depletion (HeLa cells) | IC50 (HEK-293T cells; [1]) | IC50 (HEK-293T cells; [2]) | cell viability, mean (HEK-293T cells; [3]) | cell viability, mean (HEK-293T cells; [4]) | cell viability, mean (HEK-293T cells; [5]) | cell viability, mean (HEK-293T cells; [6]) | cell viability, mean (HEK-293T cells; [7]) | cell viability, mean (HEK-293T cells; [8]) | cell viability, mean (HEK-293T cells; [9]) | cell viability, mean (HEK-293T cells; [10]) | cell viability, mean (HEK-293T cells; [11]) | cell viability, mean (HEK-293T cells; [12]) | cell viability, mean (HEK-293T cells; [13]) | cell viability, mean (HEK-293T cells; [14]) | cell viability, mean (HEK-293T cells; [15]) | other results |
| --- | --- | --- | --- | --- | --- | --- | --- | --- | --- | --- | --- | --- | --- | --- | --- | --- | --- | --- | --- | --- | --- |
| [NH2][Pt]([NH2])([Cl])[Cl] [CDDP, cisplatin] | 11.81 ± 1.7 fmol/cell | 8.3% and ~ 8.3% | 10.2784 and 11.5154 and 13.6407 | 11.81 | 8.30% | > 200 µM | > 200 µM | 95.9542 | 90.0454 | 78.4742 | 63.7251 | 47.669 | 34.929 | 24.7568 | 14.7932 | 8.255 | 98.6071 | 97.4354 | 96.6584 | 94.4248 | IC50 (HEK-293T cells; Supplementary Fig. 23 (c), read-out: IC50): 17.4 µM; cell viability, mean (HEK-293T cells; [16]): 94.1486; cell viability, mean (HEK-293T cells; [17]): 93.57; cell viability, mean (HEK-293T cells; [18]): 92.6006; cell viability, mean (HEK-293T cells; [19]): 91.2991; cell viability, mean (HEK-293T cells; [20]): 85.8671; IC50 (HEK-293T cells; [21]): > 200 µM; IC50 (HEK-293T cells; [22]): > 200 µM; IC50 (HEK-293T cells; [23]): 17.4 ± 1.05 µM |
| CC1(C)C(/C=C/C2=C3Oc4cc(OP(=O)(O)O)c(Cl)cc4C=C3CCC2)=[N+](CCCNC(=O)[C@@H](Cc2ccccc2)NC(=O)[C@@H](Cc2ccccc2)NC(=O)CCC(=O)[O][Pt]([NH2])([NH2])([OH])([Cl])[Cl])c2ccccc21 [P-CyPt] | 8.07 ± 0.8 fmol/cell | 37.3% and ~ 37.3% | 7.3478 and 7.9326 and 8.9304 | 8.07 | 37.30% | > 200 µM | > 200 µM | 98.4753 | 94.8818 | 91.0944 | 84.8089 | 73.4808 | 62.5624 | 47.5251 | 31.456 | 17.421 | 97.0705 | 99.2124 | 98.6059 | 96.2404 | IC50 (HEK-293T cells; HEK-293T, 48 h, individual samples, read-out: IC50-48h): 43.8 µM and 50.3 µM and 51.8 µM; cell viability, mean (HEK-293T cells; [16]): 97.2347; cell viability, mean (HEK-293T cells; [17]): 96.0142; cell viability, mean (HEK-293T cells; [18]): 92.8073; cell viability, mean (HEK-293T cells; [19]): 92.5552; cell viability, mean (HEK-293T cells; [20]): 88.5457; IC50 (HEK-293T cells; [21]): > 200 µM; IC50 (HEK-293T cells; [22]): > 200 µM; IC50 (HEK-293T cells; [23]): 48.6 ± 4.24 µM |
